The values below are quoted from earlier work in patent US10874098B2, “Organ preservation composition” (TX Innovations B.V., priority 2015, dated 2020).

Series [1] has as its system lung ischemia-reperfusion injury after lung transplantation. Particulars: intraperitoneal treatment of the donor animal three days before harvesting.

Take `C[C@H](N)C(=O)O` [L-alanine]: the “stability in aqueous solutions” value is reported as “spontaneously degrade”. `NCCS(=O)(=O)O` [taurine]: the “preservation of the transplanted lung” value in series [1] is “preservation of the transplanted lung in respect to histopathological and biochemical findings”.

As for L-alanine-L-glutamine, the “stability in aqueous solutions” value is “more stable in aqueous solutions and does not spontaneously degrade”.
